The values that follow are results of earlier work, collected in paper PMC3433420 (PLoS ONE, 2012).

This series deals with SH2 and PTB domains. The following applies: most recent PM interactions, cited from earlier work. From the text: Supplement pone.0044471.s022.xlsx, sheet "Most recent PM interactions" | column: Kd || Supplement pone.0044471.s022.xlsx, sheet "All original PM interactions" | column: Kd
[1] abbreviates: Protein ABL2, ref Jones et al. 2006 / Kaushansky et al. Mol Biosys 2008 / Kaushansky et al. Chem and Biol 2008.
[2] abbreviates: Protein CRK, ref Jones et al. 2006 / Kaushansky et al. Mol Biosys 2008 / Kaushansky et al. Chem and Biol 2008.
The mark [3] stands for this setting: Protein RASA1-N, ref Jones et al. 2006 / Kaushansky et al. Mol Biosys 2008 / Kaushansky et al. Chem and Biol 2008.
The mark [4] stands for this setting: Protein SHB, ref Jones et al. 2006 / Kaushansky et al. Mol Biosys 2008 / Kaushansky et al. Chem and Biol 2008.
[5] abbreviates: Protein SHC1-PTB, ref Jones et al. 2006 / Kaushansky et al. Mol Biosys 2008 / Kaushansky et al. Chem and Biol 2008.
The mark [6] stands for this setting: Protein SYK-NC, ref Jones et al. 2006 / Kaushansky et al. Mol Biosys 2008 / Kaushansky et al. Chem and Biol 2008.

Where two headings read alike, the source gives them in different places.

With LPPDDKQLLpYSEAKTPI [ErbB3 868], the Kd (in general, the equilibrium constant for the complex coming apart) is 70 nM (Protein ABL2, ref Jones et al. 2006 / Kaushansky et al. Chem and Biol 2008); 1780 nM (Protein BCAR3, ref Jones et al. 2006 / Kaushansky et al. Chem and Biol 2008); 1760 nM (Protein CRKL, ref Jones et al. 2006 / Kaushansky et al. Chem and Biol 2008); 950 nM (Protein RASA1-N, ref Jones et al. 2006 / Kaushansky et al. Chem and Biol 2008); 920 nM (Protein SYK-NC, ref Jones et al. 2006 / Kaushansky et al. Chem and Biol 2008).
Take MDDVVDADEpYLIPQQGFd [ErbB1 1016]: the Kd reads like this: under setting [1], 280 nM; (Protein BLK, ref Jones et al. 2006 / Kaushansky et al. Mol Biosys 2008 / Kaushansky et al. Chem and Biol 2008) 660 nM; under setting [2], 470 nM; (Protein CRKL, ref Jones et al. 2006 / Kaushansky et al. Mol Biosys 2008 / Kaushansky et al. Chem and Biol 2008) 1000 nM; (Protein NCK1, ref Jones et al. 2006 / Kaushansky et al. Mol Biosys 2008 / Kaushansky et al. Chem and Biol 2008) 1000 nM; (Protein PIK3R1-C, ref Jones et al. 2006 / Kaushansky et al. Mol Biosys 2008 / Kaushansky et al. Chem and Biol 2008) 870 nM. Besides, the Kd was 900 nM (Protein PIK3R1-N, ref Jones et al. 2006 / Kaushansky et al. Mol Biosys 2008 / Kaushansky et al. Chem and Biol 2008); 180 nM (Protein PIK3R1-NC, ref Jones et al. 2006 / Kaushansky et al. Mol Biosys 2008 / Kaushansky et al. Chem and Biol 2008); 420 nM (Protein PIK3R2-N, ref Jones et al. 2006 / Kaushansky et al. Mol Biosys 2008 / Kaushansky et al. Chem and Biol 2008); 350 nM (Protein PIK3R2-NC, ref Jones et al. 2006 / Kaushansky et al. Mol Biosys 2008 / Kaushansky et al. Chem and Biol 2008); 190 nM (Protein PIK3R3-C, ref Jones et al. 2006 / Kaushansky et al. Mol Biosys 2008 / Kaushansky et al. Chem and Biol 2008); 720 nM (Protein PIK3R3-N, ref Jones et al. 2006 / Kaushansky et al. Mol Biosys 2008 / Kaushansky et al. Chem and Biol 2008). The Kd (Protein PIK3R3-NC, ref Jones et al. 2006 / Kaushansky et al. Mol Biosys 2008 / Kaushansky et al. Chem and Biol 2008) was 200 nM; the Kd (Protein PLCG1-NC, ref Jones et al. 2006 / Kaushansky et al. Mol Biosys 2008 / Kaushansky et al. Chem and Biol 2008) was 790 nM; the Kd (Protein PTPN11-N, ref Jones et al. 2006 / Kaushansky et al. Mol Biosys 2008 / Kaushansky et al. Chem and Biol 2008) was 380 nM; the Kd under setting [3] was 490 nM; the Kd (Protein RASA1-NC, ref Jones et al. 2006 / Kaushansky et al. Mol Biosys 2008 / Kaushansky et al. Chem and Biol 2008) was 1420 nM; the Kd under setting [4] was 1990 nM. The equilibrium dissociation constant (Kd) runs as follows: under setting [5], 630 nM; (Protein SHC2-PTB, ref Jones et al. 2006 / Kaushansky et al. Mol Biosys 2008 / Kaushansky et al. Chem and Biol 2008) 660 nM; (Protein SHC3, ref Jones et al. 2006 / Kaushansky et al. Mol Biosys 2008 / Kaushansky et al. Chem and Biol 2008) 220 nM; (Protein SYK-C, ref Jones et al. 2006 / Kaushansky et al. Mol Biosys 2008 / Kaushansky et al. Chem and Biol 2008) 930 nM; under setting [6], 610 nM; (Protein TNS4, ref Jones et al. 2006 / Kaushansky et al. Mol Biosys 2008 / Kaushansky et al. Chem and Biol 2008) 920 nM. Moreover, the Kd runs as follows: (Protein VAV1, ref Jones et al. 2006 / Kaushansky et al. Mol Biosys 2008 / Kaushansky et al. Chem and Biol 2008) 1050 nM; (Protein VAV2, ref Jones et al. 2006 / Kaushansky et al. Mol Biosys 2008 / Kaushansky et al. Chem and Biol 2008) 85 nM.
As to NPAPSRDPHpYQDPHSTAd [ErbB1 1125], the Kd under setting [1] was 74 nM; the Kd (Protein BMX, ref Jones et al. 2006 / Kaushansky et al. Mol Biosys 2008 / Kaushansky et al. Chem and Biol 2008) was 1070 nM; the Kd under setting [2] is 1230 nM; the Kd under setting [3] was 1320 nM; the Kd under setting [4] is 990 nM; the Kd under setting [6] was 980 nM. The Kd by setting is: (Protein TNS1, ref Jones et al. 2006 / Kaushansky et al. Mol Biosys 2008 / Kaushansky et al. Chem and Biol 2008) 1280 nM; (Protein YES1, ref Jones et al. 2006 / Kaushansky et al. Mol Biosys 2008 / Kaushansky et al. Chem and Biol 2008) 380 nM.
With PAGSVQNPVpYHNQPLNPd [ErbB1 1110], the Kd by setting is: (Protein ABL1, ref Jones et al. 2006 / Kaushansky et al. Mol Biosys 2008 / Kaushansky et al. Chem and Biol 2008) 520 nM; under setting [1], 60 nM; under setting [5], 320 nM.
